# Experiment: gradient 5% acetonitrile 3 min, to 50% in 2 min, to 85% in 15 min, held 3 min, 100 µL/min
# Conditions: column: Zorbax Extend-C18 2.1 x 50 mm; eluents: water / acetonitrile, 0.1% formic acid
# Summary of the method: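 The mobile phases were water and acetonitrile, each with 0.1% formic acid, pumped at 100 μL/min through a Zorbax Extend-C18 column (2.1 × 50 mm, 1.8 μm). Pure standards were injected as mixtures of ~100 molecules and detected by a quadrupole time-of-flight mass spectrometer in positive and negative ionization mode. Retention time came from computationally picked adduct peaks, each inspected by hand.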
row,SMILES,RP-LC retention time
1,CN1C(=O)c2cccnc2Sc2cc(NC(=O)c3ccc(F)cc3Cl)ccc21,796 s
2,CC(C)N1CCC(CC(=O)N2CCc3c(c(-c4nc(-c5ccccc5)no4)nn3C)C2)CC1,654 s
3,O=C(c1cn[nH]c1)N1CCC(c2nc(CCOCC3CC3)no2)C1 (centres undefined),626 s
4,CCc1nc(-n2cccc2)sc1C(=O)Nc1ccc(Cl)cc1,1180 s
5,COCCC1CCN(C(=O)CN(C)C(=O)c2ccc(C#N)cc2)CC1,666 s
6,CCc1nn2c(CNC(=O)c3ccc(F)c(F)c3)c(-c3ccccc3)nc2s1,661 s
7,COc1ccc(-c2noc(Cc3nnc(-c4cccc(F)c4)o3)n2)cc1,1020 s
8,CCc1ccc(C2=C(C)C(N3CCC(NC(=O)NC(C)C)CC3)=NS2(=O)=O)cc1,596 s
9,COc1cccc(-n2c(=O)c(C(=O)NC3CCCC3)c(O)c3cccnc32)c1,1210 s
10,Cc1cc(C(=O)NCCCN2CCOCC2)nc2cc(-c3ccccn3)nn12,630 s
11,CCCNc1cc(N2CCC(CCC(=O)N(CC)CC)CC2)ncn1,538 s
12,Cc1nc(C2CCOCC2)n(C2CCN(S(=O)(=O)c3ccccc3Cl)C2)n1 (centres undefined),740 s
13,Cc1cccc(NC(=O)Cn2cnc3nc(N4CCCC(C(=O)NC(C)C)C4)sc3c2=O)c1C (centres undefined),712 s
14,CCOC(=O)c1noc2ncnc(Nc3ccc(CN4CCCCC4)cc3)c12,593 s
15,O=C(Nc1ccc(F)cc1F)c1c(O)c2cccnc2n(-c2cccc(F)c2)c1=O,918 s
16,CC(C)(C)N(CC(=O)N(Cc1ccco1)CC1CCCO1)C(=O)Cc1ccccc1 (centres undefined),907 s
17,COCC(=O)N1CCCc2ccc(NC(=O)CSc3ccc(F)cc3)cc21,732 s
18,COc1ccc(-c2cc3c(=O)n(Cc4noc(CN5CCC(C)CC5)n4)ccn3n2)cc1,664 s
19,COc1c(C(=O)NC2CC2)sc2ccc(Cl)cc12,965 s
20,CCSc1nc2ccc(NS(=O)(=O)c3ccc(CC)cc3)cc2s1,1120 s
21,CC(C)CCNC(=O)Cn1nc(S(=O)(=O)c2cccc(F)c2)ccc1=O,757 s
22,O=C(Cn1cnc2nc(N3CCC(C(=O)NC4CC4)CC3)sc2c1=O)Nc1ccc(F)cc1F,651 s

row,SMILES,RP-LC retention time
1,O=C(CSc1nnc(NC(=O)C2CCCCC2)s1)Nc1nccs1,747 s
2,COCc1nc2cccnc2n1C1CCN(C(=O)Nc2cc(C)ccc2C)CC1,710 s
3,O=C(NCc1ccco1)C1CCCN(C(=O)NC2CC2)C1 (centres undefined),604 s
4,COc1ccc(NC(=O)N2CCc3cn(C)c4cccc(c34)C2)cc1OC,794 s
5,COCC(=O)N(CC(=O)N1CCc2sccc2C1COc1ccc(Cl)c(C)c1)C(C)C (centres undefined),967 s
6,Cc1ccc(NC(=O)C2CCCN(c3cn[nH]c(=O)c3)C2)cc1C (centres undefined),742 s
7,CSc1ccc(-c2nc3ccc(Cl)cn3c2NC2CCCCC2)cc1,926 s
8,CC(C)c1noc(-c2cccnc2N2CCCN(Cc3c(F)cccc3Cl)CC2)n1,721 s
9,CCCCN(C)C(=O)Cn1c(C2CC(=O)N(Cc3ccccc3)C2)nc2ccccc21 (centres undefined),742 s
10,CC(C)C(=O)Nc1cn(-c2ccc(C(=O)Nc3ccc4c(c3)OCCO4)cc2)cn1,808 s
11,CCn1cc(C(=O)Nc2ccccc2)c(S(=O)(=O)N2CCSCC2)n1,834 s
12,CCn1cc(-c2nc(C(=O)Nc3ccccc3Cl)cs2)c2cccnc21,1330 s
13,COc1cc(-c2oc3cc(O)cc(O)c3c(=O)c2O[C@@H]2O[C@H](CO)[C@@H](O)[C@H](O)[C@H]2O)cc(OC)c1O,619 s
14,O=C(CSc1nnc2c3sc(N4CCCC4)nc3ncn12)Nc1ccc2c(c1)OCCO2,758 s
15,CCN1C(=O)c2ccccc2Oc2ccc(C(=O)NC3CCCC3)cc21,891 s
16,COc1ccc(CCNC(=O)C2CCc3nc(N4CCCCC4)ncc3C2)cc1OC (centres undefined),702 s
17,O=C(N[C@H]1C[C@@H]2C[C@H]1CN2C(=O)NCc1cccc(F)c1)c1cccs1,738 s
18,Cc1cccc(NC(=O)C2CCN(S(=O)(=O)c3ccc4c(c3)sc(=O)n4C(C)C)CC2)n1,815 s
19,COc1cc(Cl)cc2c1OC=CC(C(=O)Nc1ccc(N3CCOCC3)cc1)=C2,979 s
20,Cc1ccc(-c2csc(Cc3nc(-c4cccc(F)c4)no3)n2)cc1C,1360 s
21,CCn1c(=O)c(N2CCC(NC(=O)NCCCOC)CC2)nc2ccccc21,707 s
22,CN1C(=O)C2CCCCN2c2ccc(C(=O)N3CCC4(CC3)OCCO4)cc21 (centres undefined),750 s

row,SMILES,RP-LC retention time
1,CCOc1ccc(NC(=O)CSc2cc(N3CCN(c4ccc(OC)cc4)CC3)ncn2)cc1,1160 s
2,CCc1noc(NC(C)=O)c1-c1ccc(C)c(S(=O)(=O)Nc2ccc(F)cc2)c1,822 s
3,COc1ccc(S(=O)(=O)N2CCN(c3cc(C)nc(NC4CCCCC4)n3)CC2)cc1OC,756 s
4,COc1ccccc1-c1cc2c(=O)n(Cc3nc(-c4ccccc4)oc3C)ccn2n1,1120 s
5,CCn1cc(-c2nc(C)c(C(=O)N3CCN(c4ccccc4)CC3)s2)c2cccnc21,994 s
6,O=c1c2cc3c(cc2nc(SCc2nc(-c4ccc(F)cc4)no2)n1Cc1ccccc1)OCO3,1200 s
7,O=C(Cc1ccc(Cl)cc1)N1CCN(c2cc(-c3ccccc3)[nH]n2)CC1,841 s
8,Cc1ccc(-c2noc(Cn3ccn(-c4ccc(Cl)cc4)c(=O)c3=O)n2)cc1,918 s
9,CCOc1ccc(-c2ccnc3c(C(=O)Nc4cc(C)cc(C)c4)cnn23)cc1,1320 s
10,CCCS(=O)(=O)N1CCc2c(c(CN(C(C)=O)c3ccccc3)nn2C)C1,707 s
11,Cn1cc(CN2C[C@@H](CO)[C@H](NC(=O)C3CCC3)C2)c2ccccc21,615 s
12,O=C(CSc1nnc(COc2ccccc2Cl)o1)Nc1nc(-c2ccccc2)cs1,917 s
13,CC(C)n1c(=O)c2ccccc2n(Cc2nc(-c3ccc4c(c3)OCO4)no2)c1=O,1080 s
14,COc1ccc(NC(=O)CN2CCN(Cc3ccc(F)cc3)C(=O)C2=O)cc1,697 s
15,CCOC(=O)c1cc(S(=O)(=O)N2CCCC2C(=O)Nc2nc3ccc(OC)cc3s2)cn1C (centres undefined),947 s
16,Cc1c(Cl)cccc1S(=O)(=O)N1CCC(C(=O)NCc2csc(-c3cccs3)n2)CC1,1020 s
17,Cc1nc(-c2csc(S(=O)(=O)N3CCCC(C(=O)Nc4ccc5c(c4)OCCO5)C3)c2)no1 (centres undefined),880 s
18,COCCNC(=O)C(C)Sc1ccc(=O)n(-c2ccc(C)c(Cl)c2)n1 (centres undefined),731 s
19,O=C(N[C@@H]1CN(Cc2ccccc2)C[C@H]1CO)C1(c2ccccc2)CC1,652 s
20,COc1ccc(C(=O)N2C[C@@H]3C[C@H]2C[C@@H]3NC(=O)c2cccs2)cn1,666 s

# Reference: the METLIN SMRT retention time set (Domingo-Almenara et al. 2019)
